Reference: patent US20230404985A1, “METHODS OF TREATING TUMORS AND CANCERS HAVING DYSREGULATED WNT SIGNALING PATHWAYS” (ICAHN SCHOOL OF MEDICINE AT MOUNT SINAI, priority 2020, published 2023)

How the values were obtained:
[1] = test system: KIT and its downstream effector the prenyl-binding protein PDE6D; assay: NanoBRET live cell target engagement, KIT and PDE6D; assay type: cell-based
pT367 EZH2 and pT71 ATF2 = conditions: MYC-CTNNB1 organoids; WNTinib 1 μM, sorafenib 10 μM, SB202190 10 μM; 48 hours time course
Description: Tumor organoids were grown in 24 well plates and were collected in Cell Recovery Solution (Corning) after drug treatment. Tumor organoids were left to rotate at 4° C. for one hour in order to dissolve the Matrigel. Tumor organoids were spun down at 300 g at 4° C. for 5 minutes. Pellets were lysed in 2× Laemmli buffer (+4% 2-mercaptoethanol) by heating at 95° C. for 10 minutes followed by 5 seconds of sonication. SDS-PAGE was run using standard procedures.

[2] = test system: MYC-Tp53 tumor organoid allografts; assay: MYC-Tp53 tumor organoid allografts; assay type: in vivo, C57BL/6J mice; conditions: 30 mg/kg daily oral gavage
Description: 300,000 cells per allograft were prepared in 8 mg/mL Matrigel. 6-8-week-old C57BL/6J mice were shaved the day prior to injection. A 26^5/8-gauge needle was used to implant organoids into the flank in 100 μL Matrigel. Tumor allografts were measured daily with calipers, and upon an average volumetric measurement of 100 mm^3, animals were randomized and drug dosing was started. Drugs were dosed daily at 30 mg/kg via oral gavage. Tumor allografts were also measured daily.
MYC-CTNNB1 tumor organoids were engrafted into C57BL/6 mice and treatment was started when tumor volume reached 100 mm^3.

| SMILES | activity in MYC-Tp53 allografts [2] | further results |
| --- | --- | --- |
| CNC(=O)c1cc(Oc2ccc(NC(=O)Nc3ccc(C(F)(C(F)(F)F)C(F)(F)F)cc3)c(F)c2)ccn1 [8-50-2, 4-(3-fluoro-4-(3-(4-(perfluoropropan-2-yl)phenyl)ureido)phenoxy)-N-methylpicolinamide] |  | binding on KIT and PDE6D, comparison of WNTinib with 8-50-2 [1]: significant differences in binding |
| Oc1ccc(-c2nc(-c3ccncc3)c(-c3ccc(F)cc3)[nH]2)cc1 [SB202190] |  | temporal inhibition of pT367 EZH2 and pT71 ATF2 (pT367 EZH2 and pT71 ATF2): transient inhibition |
| COc1cc2nccc(Oc3ccc(NC(=O)NC4CC4)c(Cl)c3)c2cc1C(N)=O [lenvatinib] | better activity |  |
| CNC(=O)c1cc(Oc2ccc(NC(=O)Nc3ccc(Cl)c(C(F)(F)F)c3)c(F)c2)ccn1 [regorafenib] | better activity |  |
